The text below walks through data of US10906890B2, “Triazole phenyl compounds as agonists of the APJ receptor” (AMGEN INC., priority 2016, dated 2021).

The test addresses human APJ receptor (Homo sapiens (Human), UniProt P35414). The test is described as follows: [35S]GTPγS binding assay on membranes from CHO cells stably expressing human APJ receptor. The following applies: means of several independent experiments, read-out: Activity hAPJ SPA EC50 IP. In kind it is biochemical. On the procedure:
The human APJ receptor was cloned by polymerase chain reaction and the gene encoding the receptor was subcloned in pFLAG-CMV™-3 expression vector (Sigma, Saint Louis, Mo. USA) in-house at Amgen. A GTPγS binding assay was performed on membranes prepared from CHO cells stably expressing human APJ receptor. The optimum experimental conditions for the concentrations of GDP, MgCl2, and NaCl in the assay buffer were initially determined. […] Incubation was at RT for 90 min and the microplate was read using a ViewLux™ ultra HTS Microplate Imager (PerkinElmer, Inc.). All the results presented are means of several independent experiments and analyzed by non-linear regression methods using the commercially available program Prism (GraphPad, San Diego, Calif.) providing the EC50 values detailed in Table 28.
Background: GTPγS resists hydrolysis and so accumulates on activated G proteins.

human APJ receptor, sequence (P35414 whole entry): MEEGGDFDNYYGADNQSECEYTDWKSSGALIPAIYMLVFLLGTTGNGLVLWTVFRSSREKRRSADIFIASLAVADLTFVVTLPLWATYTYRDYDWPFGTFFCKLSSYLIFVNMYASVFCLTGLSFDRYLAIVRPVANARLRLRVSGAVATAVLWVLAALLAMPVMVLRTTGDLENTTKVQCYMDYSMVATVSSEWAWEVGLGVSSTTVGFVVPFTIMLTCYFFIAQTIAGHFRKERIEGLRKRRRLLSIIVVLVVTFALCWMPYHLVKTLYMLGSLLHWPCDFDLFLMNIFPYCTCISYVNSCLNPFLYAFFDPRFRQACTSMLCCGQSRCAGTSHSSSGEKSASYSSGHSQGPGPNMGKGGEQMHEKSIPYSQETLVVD

As usually defined, the EC50 is the concentration needed to bring the measured effect to its halfway point. Take `COc1ncnc(OC)c1-n1c(NS(=O)(=O)[C@@H](C)Cc2ncc(F)cn2)nnc1-c1ccccc1` (single isomer, unassigned) [Example 9.0, (2S)-N-(4-(4,6-dimethoxy-5-pyrimidinyl)-5-phenyl-4H-1,2,4-triazol-3-yl)-1-(5-fluoro-2-pyrimidinyl)-2-propanesulfonamide or (2R)-N-(4-(4,6-dimethoxy-5-pyrimidinyl)-5-phenyl-4H-1,2,4-triazol-3-yl)-1-(5-fluoro-2-pyrimidinyl)-2-propanesulfonamide]: the EC50 amounted to 0.04 µM. The same measure for `CO[C@H](c1ncc(Cl)cn1)[C@H](C)S(=O)(=O)Nc1nnc(-c2ccccc2)n1C1CCOCC1` [Example 62.0, (1R,2S)-1-(5-chloro-2-pyrimidinyl)-1-methoxy-N-(5-phenyl-4-(tetrahydro-2H-pyran-4-yl)-4H-1,2,4-triazol-3-yl)-2-propanesulfonamide]: 0.074 µM; for `COc1cccc(OC)c1-n1c(NS(=O)(=O)[C@@H](C)[C@H](OC)c2ncc(C)cn2)nnc1-c1cccc(OC(F)(F)F)c1` [Example 89.0, (1R,2S)—N-(4-(2,6-Dimethoxyphenyl)-5-(3-(trifluoromethoxy)phenyl)-4H-1,2,4-triazol-3-yl)-1-methoxy-1-(5-methyl-2-pyrimidinyl)-2-propanesulfonamide]: 0.00047 µM. Regarding `COc1ncnc(OC)c1-n1c(NS(=O)(=O)[C@H]2CCCN(c3ncc(F)cn3)C2)nnc1-c1ccccc1` (single isomer, unassigned) [Example 28.0, (3S)-N-(4-(4,6-dimethoxy-5-pyrimidinyl)-5-phenyl-4H-1,2,4-triazol-3-yl)-1-(5-fluoro-2-pyrimidinyl)-3-piperidinesulfonamide or (3R)-N-(4-(4,6-dimethoxy-5-pyrimidinyl)-5-phenyl-4H-1,2,4-triazol-3-yl)-1-(5-fluoro-2-pyrimidinyl)-3-piperidinesulfonamide], the EC50 was found to be 0.41 µM. Turning to `C[C@H](c1ncc(Cl)cn1)[C@H](C)S(=O)(=O)Nc1nnc(-c2ccccc2)n1C1CCOCC1` [Example 61.0, (2S,3R)-3-(5-chloro-2-pyrimidinyl)-N-(5-phenyl-4-(tetrahydro-2H-pyran-4-yl)-4H-1,2,4-triazol-3-yl)-2-butanesulfonamide], the EC50 worked out at 0.069 µM. As for `COC[C@@H](C)n1c(NS(=O)(=O)[C@@H](C)[C@H](OC)c2ncc(Cl)cn2)nnc1-c1ccccc1` [Example 124.0], the figure is 0.057 µM; as for `COCC1(n2c(NS(=O)(=O)[C@@H](C)[C@H](OC)c3ncc(Cl)cn3)nnc2-c2ccccc2)CC1` [Example 97.0, (1R,2S)-1-(5-Chloro-2-pyrimidinyl)-1-methoxy-N-(4-(1-(methoxymethyl)cyclopropyl)-5-phenyl-4H-1,2,4-triazol-3-yl)-2-propanesulfonamide], 0.001 µM. The same measure for `COc1ncnc(OC)c1-n1c(NS(=O)(=O)[C@@H](C)[C@H](C)c2cnc(C)cn2)nnc1-c1ccccc1` [Example 26.0, (2S,3R)-N-(4-(4,6-dimethoxy-5-pyrimidinyl)-5-phenyl-4H-1,2,4-triazol-3-yl)-3-(5-methyl-2-pyrazinyl)-2-butanesulfonamide]: 0.0052 µM; for `COc1cccc(OC)c1-n1c(NS(=O)(=O)[C@@H](C)[C@H](OC)c2ncc(C)cn2)nnc1-c1ccccc1` [Example 77.0, (1R,2S)-N-(4-(2,6-dimethoxyphenyl)-5-phenyl-4H-1,2,4-triazol-3-yl)-1-methoxy-1-(5-methyl-2-pyrimidinyl)-2-propanesulfonamide]: 0.001 µM; for `COc1cccc(OC)c1-n1c(NS(=O)(=O)[C@H]2CCCN(c3ncc(F)cn3)C2)nnc1-c1ccccc1` (single isomer, unassigned) [Example 21.0, (3S)—N-(4-(2,6-Dimethoxyphenyl)-5-phenyl-4H-1,2,4-triazol-3-yl)-1-(5-fluoro-2-pyrimidinyl)-3-piperidinesulfonamide or (3R)—N-(4-(2,6-dimethoxyphenyl)-5-phenyl-4H-1,2,4-triazol-3-yl)-1-(5-fluoro-2-pyrimidinyl)-3-piperidinesulfonamide]: 0.0073 µM. The same measure for `CCN(CC)c1ccc(-c2nnc(NS(=O)(=O)[C@@H](C)[C@H](OC)c3ncc(C)cn3)n2-c2c(OC)cccc2OC)cc1` [Example 83.0, (1R,2S)-N-(5-(4-(diethylamino)phenyl)-4-(2,6-dimethoxyphenyl)-4H-1,2,4-triazol-3-yl)-1-methoxy-1-(5-methyl-2-pyrimidinyl)-2-propanesulfonamide]: 0.089 µM; for `COc1ncnc(OC)c1-n1c(NS(=O)(=O)[C@H]2C[C@@H](OC(C)C)CN(c3ncc(F)cn3)C2)nnc1-c1ccccc1` (single isomer, unassigned) [Example 64.0, (3R,5S)-N-(4-(4,6-dimethoxy-5-pyrimidinyl)-5-phenyl-4H-1,2,4-triazol-3-yl)-1-(5-fluoro-2-pyrimidinyl)-5-(1-methylethoxy)-3-piperidinesulfonamide or (3S,5R)-N-(4-(4,6-dimethoxy-5-pyrimidinyl)-5-phenyl-4H-1,2,4-triazol-3-yl)-1-(5-fluoro-2-pyrimidinyl)-5-(1-methylethoxy)-3-piperidinesulfonamide]: 0.0047 µM. Regarding `COc1cccc(OC)c1-n1c(NS(=O)(=O)[C@@H](C)[C@H](OC)c2ncc(C)cn2)nnc1-c1ccc(Oc2ccccc2)cc1` [Example 82.0, (1R,2S)-N-(4-(2,6-dimethoxyphenyl)-5-(4-phenoxyphenyl)-4H-1,2,4-triazol-3-yl)-1-methoxy-1-(5-methyl-2-pyrimidinyl)-2-propanesulfonamide], the EC50 is above 4.2 µM.

For `COc1ncnc(OC)c1-n1c(NS(=O)(=O)[C@@H](C)[C@H](C)c2ncc(Cl)cn2)nnc1-c1ccccc1` [Example 17.0, (2S,3R)-3-(5-chloro-2-pyrimidinyl)-N-(4-(4,6-dimethoxy-5-pyrimidinyl)-5-phenyl-4H-1,2,4-triazol-3-yl)-2-butanesulfonamide], the EC50 stood at 0.00089 µM. As for `CO[C@H](c1ncc(Cl)cn1)[C@H](C)S(=O)(=O)Nc1nnc(-c2ccccc2)n1C(C)C` [Example 110.0], the figure is 0.075 µM; as for `COc1cccc(OC)c1-n1c(NS(=O)(=O)[C@@H](C)[C@H](O)c2ncc(C)cn2)nnc1-c1ccccc1` [Example 18.0, (1R,2S)-N-(4-(2,6-dimethoxyphenyl)-5-phenyl-4H-1,2,4-triazol-3-yl)-1-hydroxy-1-(5-methyl-2-pyrimidinyl)-2-propanesulfonamide], 0.00081 µM; as for `COc1ccccc1-c1nnc(NS(=O)(=O)[C@@H](C)[C@H](OC)c2ncc(Cl)cn2)n1[C@@H]1CCCOC1` [Example 118.0], 0.18 µM. For the compound `COc1cccc(OC)c1-n1c(NS(=O)(=O)[C@@H](C)Cc2ncc(F)cn2)nnc1-c1ccccc1` (single isomer, unassigned) [Example 8.0, (2S)-N-(4-(2,6-dimethoxyphenyl)-5-phenyl-4H-1,2,4-triazol-3-yl)-1-(5-fluoro-2-pyrimidinyl)-2-propanesulfonamide or (2R)-N-(4-(2,6-dimethoxyphenyl)-5-phenyl-4H-1,2,4-triazol-3-yl)-1-(5-fluoro-2-pyrimidinyl)-2-propanesulfonamide], the EC50 came out at 0.015 µM. As for `CO[C@H](c1ncc(C)cn1)[C@H](C)S(=O)(=O)Nc1nnc(-c2ccccc2)n1-c1c(F)cccc1F` [Example 41.0, (1R,2S)-N-(4-(2,6-difluorophenyl)-5-phenyl-4H-1,2,4-triazol-3-yl)-1-methoxy-1-(5-methyl-2-pyrimidinyl)-2-propanesulfonamide], the figure is 0.0047 µM.
